# Results published in patent publication US20250360145A1, “CSF-1R INHIBITORS AND USES THEREOF” (Myrobalan Therapeutics, Inc., priority 2022, published 2025).
# Read-outs that look alike come from different tables or passages of the source.
# Assays:
# EOC2 cell = test: Cell proliferation assay, EOC2; assay type: cell-based, mouse; settings: Mus musculus, 72 h
# [1] = system: microglia (Iba1+ cells) in cortex and hippocampus; test: In vivo microglial depletion; design: species or system C57BL/6 mice; settings: for Mean Cortical Ibal + Cell Density ± SEM (mm^−2) / Mean Hippocampal Ibal + Cell Density ± SEM (mm^−2): oral gavage BID 7 days; for Mean Cortical Ibal + Cell Density ± SEM (mm^−2): cortex; for Mean Hippocampal Ibal + Cell Density ± SEM (mm^−2): hippocampus
# Experimental: To measure the in vivo pharmacodynamic effect, we quantified microglial depletion following repeated dosing of our compound in naive animals. Female C57BL/6 mice were given Example 134 (0, 50, 100, or 200 mg/kg/day, respectively) by oral gavage BID for 7 days. Following the final dose, mice were perfused with PBS followed by 4% paraformaldehyde (PFA). Brains were post-fixed overnight in 4% PFA and then transferred to 30% sucrose solution. Sagittal sections were sliced and stained for the microglial marker Iba1 and counterstained for DAPI. Brain sections were then imaged under 20× wide-field imaging, and the microglia density was quantified in the cortex and hippocampus.
# primary rat microglia = test: Primary rat microglia survival; assay type: cell-based; settings: 3 days of exposure, Iba1 staining
# Text: To assess the potency of CSF1R inhibitors disclosed herein we isolated and expanded primary brain glia from rat cortices in-vitro. This glial culture is about 20% microglia that is supported mostly by astrocytes that make up the rest of the population. The brain glia was exposed to CSF1R inhibitors for 3 days followed by paraformaldehyde fixation and immunofluorescence staining for the microglia marker, Iba1. The glial was imaged using a high-content-imager and the changes in microglia content were quantified. Using GraphPad Prism, a four-parameter logistic regression was applied to determine the potency of the CSF1R inhibitors.
# [2] = system: Ba/F3_CSF-1R (stably expressing human CSF-1R kinase); test: Cell proliferation assay, Ba/F3_CSF-1R; assay type: cell-based; settings: BaF3, 72 h
# [3] = system: CSF1R phosphorylation in THP-1 cells; test: p-CSF1R ELISA assay in THP1 cells; assay type: cell-based; settings: Homo sapiens, THP1 cells pre-treated one hour, stimulated with hCSF1, read-out: THP1 pCSFIR ELISA EC50
# [4] = system: CSF1R phosphorylation in THP-1 cells; test: Inhibition of CSF1R phosphorylation in THP-1 monocytes (ELISA, Table D); assay type: cell-based, human; settings: FIG. 6
# Experimental: The THP-1 human monocyte-like cell line has intact CSF1R signaling that allows for the probing of the activation status of this pathway when stimulated by recombinant CSF. THP-1 cells were expanded in-vitro and pretreated with CSF1R inhibitors for an hour prior to stimulation with recombinant human M-CSF for 5 minutes. The cells were lysed, and the lysate was probed for activated CSF1R (pCSF1R) using ELISA. Using GraphPad Prism, a four-parameter logistic regression was applied to determine the potency of the CSF1R inhibitors.
# [5] = system: CSF1R phosphorylation in BV2 cells; test: p-CSF1R Western blot assay in BV2 cells; assay type: cell-based, murine; settings: Mus musculus, BV-2, 30 minutes pretreatment, CSF1 100 ng/mL 5 minutes
# [6] = system: ERK1/2 phosphorylation in BV2 cells; test: p-ERK1/2 Western blot assay in BV2 cells; assay type: cell-based, murine; settings: Mus musculus, BV-2, 30 minutes pretreatment, CSF1 100 ng/mL 5 minutes
# BV2 cells = test: BV2 cell proliferation (Cell Titer Glo); assay type: cell-based, murine; settings: Mus musculus, BV-2, CSF1 100 ng/mL, 72 h
# [7] = EOC2 cells, 72 hours treatment, read-out: ECO2 EC50
# [8] = read-out: CSF-1R BaF3 EC50 (nM)
# [9] = Ba/F3_CSF-1R cells, 72 hours treatment, read-out: CSF-1R BaF3 EC50
compound,measurement,setting,value
"COc1ccc(COc2ncc(Cc3ccnc4cc(-c5ccn(C)n5)cnc34)cc2OC)nc1 [Example 134, 8-((5-methoxy-6-((5-methoxypyridin-2-yl)methoxy)pyridin-3-yl)methyl)-3-(1-methyl-1H-pyrazol-3-yl)-1,5-naphthyridine]",EC50,EOC2 cell; [7],5.5 nM
same,decrease of microglia density in the cortex compared to vehicle control,[1]; 50 mg/kg,> 22%
same,Mean Cortical Ibal + Cell Density ± SEM (mm^−2),[1]; 50 mg/kg,63.6 ± 8.1 mm^−2
same,Mean Hippocampal Ibal + Cell Density ± SEM (mm^−2),[1]; 50 mg/kg,73.3 ± 7.8 mm^−2
same,decrease of microglia density in the cortex compared to vehicle control,[1]; 100 mg/kg,> 91%
same,decrease of microglia density in the hippocampus relative to vehicle control,[1]; 100 mg/kg,> 83%
same,Mean Cortical Ibal + Cell Density ± SEM (mm^−2),[1]; 100 mg/kg,6.9 ± 1.2 mm^−2
same,Mean Hippocampal Ibal + Cell Density ± SEM (mm^−2),[1]; 100 mg/kg,13.6 ± 2.2 mm^−2
same,decrease of microglia density in the cortex compared to vehicle control,[1]; 200 mg/kg,> 98%
same,decrease of microglia density in the hippocampus relative to vehicle control,[1]; 200 mg/kg,> 93%
same,Mean Cortical Ibal + Cell Density ± SEM (mm^−2),[1]; 200 mg/kg,1.5 ± 0.3 mm^−2
same,Mean Hippocampal Ibal + Cell Density ± SEM (mm^−2),[1]; 200 mg/kg,5.6 ± 0.9 mm^−2
same,primary rat microglia survival,primary rat microglia,dose-dependent inhibition of primary rat microglia survival
same,EC50,[2]; [8],7.1 nM
"COc1cnc2c(Cc3cnc(OCc4cc5n(n4)C[C@H](OC)C5)c(OC)c3)ccnc2c1 [Example 136, (R)-3-methoxy-8-((5-methoxy-6-((5-methoxy-5,6-dihydro-4H-pyrrolo[1,2-b]pyrazol-2-yl)methoxy)pyridin-3-yl)methyl)-1,5-naphthyridine]",EC50,EOC2 cell; read-out: ECO2 EC50 (nM),94.8 nM
same,primary rat microglia survival,primary rat microglia,dose-dependent inhibition of primary rat microglia survival
same,EC50,[2]; [8],66.2 nM
COc1ccc(COc2ncc(Cc3ccnc4cc(N5CCN(C)CC5)cnc34)cc2OC)nc1 [Example 116],EC50,EOC2 cell; [7],10 nM
same,EC50,[2]; [9],33.8 nM
"COc1cnc2c(Cc3cnc(OCc4cc5n(n4)CCOC5)c(OC)c3)ccnc2c1 [Example 73, 2-(((3-methoxy-5-((7-methoxy-1,5-naphthyridin-4-yl)methyl)pyridin-2-yl)oxy)methyl)-6,7-dihydro-4H-pyrazolo[5,1-c][1,4]oxazine]",EC50,EOC2 cell; read-out: ECO2 EC50 (nM),47.5 nM
same,primary rat microglia survival,primary rat microglia,dose-dependent inhibition of primary rat microglia survival
same,EC50,[2]; [8],73.1 nM
"COc1ccc(COc2ncc(Cc3ccnc4cc(OC)cnc34)cc2OC)nc1 [Example 16, 3-methoxy-8-((5-methoxy-6-((5-methoxypyridin-2-yl)methoxy)pyridin-3-yl)methyl)-1,5-naphthyridine]",EC50,EOC2 cell; [7],39.2 nM
same,EC50,[3],10.8 nM
same,CSF1R phosphorylation in CSF1R-stimulated THP-1 monocytes,[4],dose-dependent inhibition of CSF1R phosphorylation
same,EC50,[5],47.2 nM
same,EC50,[6],21.4 nM
same,EC50,BV2 cells,45.4 nM
same,primary rat microglia survival,primary rat microglia,dose-dependent inhibition of primary rat microglia survival
same,EC50,[2]; [9],61.7 nM
